From patent US12630594B2, “Allergy antigen and epitope for same” (HOYU CO., LTD., priority 2017, dated 2026)
Where no end group is shown, it is not given here.

Assays:
Format in all cases: binding, human
[1] = system: IgE antibody from one patient having allergies to salmons and bastard halibut; assay: Confirmation of epitope cross-reactivity (ELISA, FIG. 5); conditions: for binding of IgE antibody to peptide: serum of fish-allergic patient with symptoms to salmon and bastard halibut vs serum mixture from 4 non-fish-allergic subjects, FIG. 5
Source text: FIG. 5 is a diagram showing results of measuring […] using the sera of a fish-allergic patient and a non-fish-allergic subject as to a peptide of epitope No. 11 (SEQ ID NO: 160) having the amino acid sequence “SMVLVKMKEIAEAYL” derived from salmon heat shock cognate 70 kDa protein, and a peptide having the amino acid sequence “AMVLVKMKETAEAYL” derived from bastard halibut heat shock cognate 70 kDa protein. The numeric values on the ordinate represent absorbance for light at a wavelength of 450 nm.
Amino acids other than particularly important amino acids in the region (SEQ ID NO: 250) important for binding, in epitope No. 11 having the amino acid sequence “SMVLVKMKEIAEAYL” (SEQ ID NO: 160) found in salmon heat shock cognate 70 kDa protein in Table 3 were defined as any given amino acid (X). NCBI was searched for proteins having the resulting amino acid sequence “EXXXXYL” (SEQ ID NO: 248). As a result, the amino acid sequence “AMVLVKMKETAEAYL” (SEQ ID NO: 451) of bastard halibut heat shock 70 kDa protein (accession number: XP_019944736.1) was identified. […]
To be specific, ELISA was carried out according to the following procedure. • (1) The concentrations of the biotinylated peptides were adjusted to 1 μg/mL with PBST. • (2) Each peptide solution was added at 40 μL to each well of a 384-well plate coated with streptavidin, and shaken at room temperature for one hour. […] Absorbance at 450 nm was measured.
A peptide having this amino acid sequence “AMVLVKMKETAEAYL” of bastard halibut heat shock 70 kDa protein and a peptide having the amino acid sequence “SMVLVKMKEIAEAYL” of salmon heat shock cognate 70 kDa protein were each prepared by the same procedure as in Example 10(A), and the presence or absence of binding thereto of IgE antibodies present in the serum of a fish-allergic patient having allergy symptoms to salmon and bastard halibut and the serum of a non-fish-allergic subject (serum mixture from 4 subjects) was measured by the same technique as therein.

[2] = system: IgE antibodies from patients; assay: Epitope mapping (2): overlapping 10-amino-acid peptide fragments shifted by one amino acid; conditions: positions numbered within the 15-amino-acid epitope; serum of 5 patients
Source text: On the basis of the sequences (SEQ ID NOs: 150-154 for alpha-actinin-3, SEQ ID NO: 155 for EEF1A2 binding protein-like, SEQ ID NOs: 156 and 157 for alpha-1,4-glucan phosphorylase, SEQ ID NOs: 158 and 159 for elongation factor 2, SEQ ID NOs: 160-162 for heat shock cognate 70 kDa protein, SEQ ID NOs: 163-167 for serotransferrin, SEQ ID NOs: 168-171 for myosin binding protein H-like, SEQ ID NOs: 172-174 for desmin (fragment), SEQ ID NOs: 175-178 for capping protein (actin filament) muscle Z-line beta, SEQ ID NOs: 179-185 for myosin heavy chain, fast skeletal muscle-like, SEQ ID NO: 186 for glycogen phosphorylase, muscle form-like, SEQ ID NOs: 187-196 for myosin-binding protein C, fast-type-like, SEQ ID NO: 197 for ATP synthase subunit beta, mitochondrial, SEQ ID NO: 198 for L-lactate dehydrogenase A chain-like, SEQ ID NO: 199 for aldolase, SEQ ID NOs: 200-202 for β-enolase, and SEQ ID NOs: 203 and 204 for glyceraldehyde-3-phosphate dehydrogenase) of the peptides bound to an IgE antibody in serum in a patient-specific manner as described above in (A), a library of overlapping peptide fragments (length: 10 amino acids) was prepared using the sequences of the peptides and sequences in which sequences were added so as to flank each peptide in the amino acid sequences of allergen components (SEQ ID NO: 2 for alpha-actinin-3, SEQ ID NO: 5 for EEF1A2 binding protein-like, SEQ ID NO: 10 for alpha-1,4-glucan phosphorylase, SEQ ID NO: 19 for elongation factor 2, SEQ ID NO: 26 for heat shock cognate 70 kDa protein, SEQ ID NO: 33 for serotransferrin, SEQ ID NO: 43 for myosin binding protein H-like, SEQ ID NO: 56 for desmin (fragment), SEQ ID NO: 61 for capping protein (actin filament) muscle Z-line beta, SEQ ID NO: 70 for myosin heavy chain, fast skeletal muscle-like, SEQ ID NO: 110 for glycogen phosphorylase, muscle form-like, SEQ ID NO: 121 for myosin-binding protein C, fast-type-like, SEQ ID NO: 138 for ATP synthase subunit beta, mitochondrial, SEQ ID NO: 144 for L-lactate dehydrogenase A chain-like, SEQ ID NO: 445 for aldolase, SEQ ID NO: 446 for β-enolase, and SEQ ID NO: 447 for glyceraldehyde-3-phosphate dehydrogenase) comprising the sequences of the peptide. Epitope mapping was carried out using the library.
The peptides to be synthesized were shifted by one amino acid.
The library was prepared by the same procedure as described above in (A), and the presence or absence of binding of an IgE antibody present in the serum of a patient and a non-fish-allergic subject to each peptide fragment was measured by the same technique as described above. Amino acids at positions where the binding activity against IgE antibodies from patients were lost or decreased in the peptides shifted by one amino acid while binding activity against IgE antibodies from non-fish-allergic subjects arose were confirmed as amino acids adversely affecting the specificity of binding to IgE antibodies.
Chemiluminescence intensity in images obtained by measurement was converted into a numeric value in the same manner as in (A) using ImageQuant TL (GE Healthcare). […]

[3] = system: IgE antibody in the serum of a fish-allergic patient; assay: Immunoblotting of two-dimensional electrophoresis patterns of fish meat proteins with patient serum; conditions: for spots detected by immunoblotting, different from spots with serum of non-fish-allergic subject: proteins contained in salmon meat; for specific binding to IgE antibodies from fish-allergic patients: spots in two-dimensional electrophoresis gel of proteins in fish, patients diagnosed with immediate-type allergy
Experimental: Proteins contained in fish were analyzed by the aforementioned technique to identify antigens of an allergy to fish. To be specific, proteins were extracted from fish meat and subjected to two-dimensional electrophoresis under the conditions described below.
The electrophoresis in the first dimension was isoelectric focusing, which was performed using isoelectric focusing gels with a gel-strip length of 5 to 10 cm and a gel pH range of 3 to 10. The pH gradient of the gels in the direction of electrophoresis was as follows: with the total gel-strip length being taken as 1, the gel-strip length up to pH 5 was “a=0.15 to 0.3”, the gel-strip length from pH 5 to 7 was “b=0.4 to 0.7”, and the gel-strip length above pH 7 was “c=0.15 to 0.3”. More specifically, the isoelectric focusing was performed using the IPG gels, Immobiline Drystrip (pH3-10NL), produced by GE Healthcare Bio-Sciences Corporation (hereinafter abbreviated as “GE”). The electrophoresis system used was IPGphor produced by GE. The maximum current of the electrophoresis system was limited to 75 μA per gel strip. The voltage program adopted to perform the first-dimensional isoelectric focusing was as follows: (1) a constant voltage step was performed at a constant voltage of 300 V until the volt-hours reached 750 Vhr (the current variation width during electrophoresis for 30 minutes before the end of this step was 5 μA); (2) the voltage was increased gradually to 1000 V for 300 Vhr; (3) the voltage was further increased gradually to 5000 V for 4500 Vhr; and then (4) the voltage was held at a constant voltage of 5000 V until the total Vhr reached 12000.
The electrophoresis in the second dimension was SDS-PAGE, which was performed using polyacrylamide gels whose gel concentration at the distal end in the direction of electrophoresis was set to 3 to 6% and whose gel concentration at the proximal end was set to a higher value than that at the distal end. More specifically, the SDS-PAGE was performed using NuPAGE 4-12% Bris-Tris Gels (IPG well, Mini, 1 mm) produced by Life Technologies. The electrophoresis system used was XCell SureLock Mini-Cell produced by Life Technologies. The electrophoresis was run at a constant voltage of 200 V for about 45 minutes using an electrophoresis buffer composed of 50 mM MOPS, 50 mM Tris base, 0.1% (w/v) SDS and 1 mM EDTA.
Identification of antigens by immunoblotting was carried out by taking all the steps up to the step of “Second-dimensional SDS-PAGE” as described above in Example 1, followed by the steps of “Transfer to membrane”, “Immunoblotting” and “Analysis” as described below.
To be specific, proteins in the second-dimensional electrophoresis gels were transferred to a membrane (PVDF membrane) according to the following procedure. • (1) The PVDF membrane was immersed in 100% methanol followed by milliQ water, and then moved into the transfer buffer to hydrophilize the PVDF membrane. • (2) After sponge, filter paper, the second-dimensional electrophoresis gels treated by second-dimensional SDS-PAGE, the hydrophilized PVDF membrane, filter paper, and sponge were put in place in this order, the transfer system was energized at a constant voltage of 30 V for one hour. Immunoblotting
Immunoblotting of the membrane was carried out using, as a primary antibody, a serum sample from patient 1 with a fish allergy or a serum sample from a non-fish-allergic subject. This fish-allergic patient 1 was a patient diagnosed with immediate-type allergy to fish. […]

[4] = serum from fish-allergic patient 2 (FIG. 1B left)

## 11 (SMVLVKMKEIAEAYL; not fully specified (N-terminus)) [compound 11]
[1]; between fish species
  epitope cross-reactivity: cross-reactivity between the fish species salmon and bastard halibut
[2]
  Positions of amino acids of region important for binding in epitope: 9-15

## AMVLVKMKETAEAYL (not fully specified (N-terminus))
[1]
  binding of IgE antibody to peptide: bound in a patient-specific manner

## Capping protein (actin filament) muscle Z-line beta [Spot 9]
[3]; [4]
  spots detected by immunoblotting, different from spots with serum of non-fish-allergic subject: detected
[3]
  specific binding to IgE antibodies from fish-allergic patients: specific binding to IgE antibodies

## Elongation factor 2 [Spot 4]
[3]
  specific binding to IgE antibodies from fish-allergic patients: specific binding to IgE antibodies

## Heat shock cognate 70 kDa protein [Spot 5]
[3]
  specific binding to IgE antibodies from fish-allergic patients: specific binding to IgE antibodies

## L-lactate dehydrogenase A chain-like [Spot 14]
[3]; [4]
  spots detected by immunoblotting, different from spots with serum of non-fish-allergic subject: newly detected
[3]
  specific binding to IgE antibodies from fish-allergic patients: specific binding to IgE antibodies

## Myosin heavy chain, fast skeletal muscle-like [Spot 10]
[3]; serum from fish-allergic patient 3 (FIG. 1B right)
  spots detected by immunoblotting, different from spots with serum of non-fish-allergic subject: newly detected
[3]
  specific binding to IgE antibodies from fish-allergic patients: specific binding to IgE antibodies

## SMVLVKMKEIAEAYL (not fully specified (N-terminus)) [Epitope No. 11]
[1]
  binding of IgE antibody to peptide: bound in a patient-specific manner
